Assay results from ChEMBL document CHEMBL1201862, “PubChem BioAssay data set” (2004).
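Protocol summary: plate cells (96-well), add compound at 5 concentrations, incubate 48 h, interpolate endpoints linearly. GI50 is the concentration that inhibits growth by half.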 Calls of active or inactive are those of the source. Rule as the data show it: active = GI50 up to about 1.1 µM and inactive = higher.

Key:
Experiment in all cases: NCI anticancer screen, dose series, 48 h
[1] = test system: 786-0
[2] = test system: A549
[3] = test system: ACHN
[4] = test system: BT-549
[5] = test system: CAKI-1
[6] = test system: CCRF-CEM
[7] = test system: COLO 205
[8] = test system: DU-145
[9] = test system: EKVX
[10] = test system: HCC 2998
[11] = test system: HCT-116
[12] = test system: HCT-15
[13] = test system: HL-60
[14] = test system: HOP-62
[15] = test system: HOP-92
[16] = test system: HT-29
[17] = test system: Hs-578T
[18] = test system: IGROV-1
[19] = test system: K562
[20] = test system: KM12
[21] = test system: LOX IMVI
[22] = test system: M14
[23] = test system: MCF7
[24] = test system: MDA-MB-231
[25] = test system: MDA-MB-435
[26] = test system: MDA-N
[27] = test system: MOLT-4
[28] = test system: NCI-H226
[29] = test system: NCI-H23
[30] = test system: NCI-H460
[31] = test system: NCI-H522
[32] = test system: NCI/ADR-RES
[33] = test system: OVCAR-3
[34] = test system: OVCAR-4
[35] = test system: OVCAR-5
[36] = test system: OVCAR-8
[37] = test system: PC-3
[38] = test system: RPMI-8226
[39] = test system: RXF 393
[40] = test system: SF-268
[41] = test system: SF-295
[42] = test system: SF-539
[43] = test system: SK-MEL-28
[44] = test system: SK-MEL-2
[45] = test system: SK-MEL-5
[46] = test system: SK-OV-3
[47] = test system: SN12C
[48] = test system: SNB-19
[49] = test system: SNB-75
[50] = test system: SR
[51] = test system: SW-620
[52] = test system: T47D
[53] = test system: TK-10
[54] = test system: U-251
[55] = test system: UACC-257
[56] = test system: UACC-62
[57] = test system: UO-31
[58] = test system: A498
[59] = test system: Malme-3M

O=C1/C(=C/c2ccc(Cl)cc2)Sc2scc(-c3cccc([N+](=O)[O-])c3)[n+]21
GI50 [1]: 2.16 µM (inactive)
GI50 [2]: 13.6 µM (inactive)
GI50 [3]: 2.49 µM (inactive)
GI50 [4]: 2.2 µM (inactive)
GI50 [5]: 3.01 µM (inactive)
GI50 [6]: 0.259 µM (active)
GI50 [7]: 1.86 µM (inactive)
GI50 [8]: 7.11 µM (inactive)
GI50 [9]: 4.18 µM (inactive)
GI50 [10]: 2.8 µM (inactive)
GI50 [11]: 2.06 µM (inactive)
GI50 [12]: 1.9 µM
GI50 [13]: 0.308 µM (active)
GI50 [14]: 19.5 µM (inactive)
GI50 [15]: 2.17 µM (inactive)
GI50 [16]: 5.65 µM (inactive)
GI50 [17]: 5.48 µM (inactive)
GI50 [18]: 2.96 µM (inactive)
GI50 [19]: 0.459 µM (active)
GI50 [20]: 2.89 µM (inactive)
GI50 [21]: 3.01 µM (inactive)
GI50 [22]: 3.57 µM (inactive)
GI50 [23]: 3.91 µM (inactive)
GI50 [24]: 5.22 µM (inactive)
GI50 [25]: 3.4 µM (inactive)
GI50 [26]: 3.36 µM (inactive)
GI50 [27]: 2.04 µM (inactive)
GI50 [28]: 29.8 µM (inactive)
GI50 [29]: 4.95 µM (inactive)
GI50 [30]: 4.53 µM (inactive)
GI50 [31]: 0.44 µM (active)
GI50 [32]: 2.37 µM (inactive)
GI50 [33]: 8.09 µM (inactive)
GI50 [34]: 6.97 µM (inactive)
GI50 [35]: 10.8 µM (inactive)
GI50 [36]: 7.55 µM (inactive)
GI50 [37]: 7.5 µM (inactive)
GI50 [38]: 1.39 µM (inactive)
GI50 [39]: 2.42 µM (inactive)
GI50 [40]: 2.95 µM (inactive)
GI50 [41]: 11.4 µM (inactive)
GI50 [42]: 2.3 µM (inactive)
GI50 [43]: 2.81 µM (inactive)
GI50 [44]: 12.9 µM (inactive)
GI50 [45]: 2.61 µM (inactive)
GI50 [46]: 10.5 µM (inactive)
GI50 [47]: 2.77 µM (inactive)
GI50 [48]: 15.6 µM (inactive)
GI50 [49]: 0.971 µM (active)
GI50 [50]: 0.296 µM (active)
GI50 [51]: 1.76 µM (inactive)
GI50 [52]: 3.5 µM (inactive)
GI50 [53]: 2.13 µM (inactive)
GI50 [54]: 4.55 µM (inactive)
GI50 [55]: 4.61 µM (inactive)
GI50 [56]: 3.16 µM (inactive)
GI50 [57]: 4.43 µM (inactive)

N#Cc1nc(C#N)n(C(=O)c2ccccc2)c1NC(=O)c1ccccc1
GI50 [1]: > 100 µM (inactive)
GI50 [58]: > 100 µM (inactive)
GI50 [2]: > 100 µM (inactive)
GI50 [3]: > 100 µM (inactive)
GI50 [4]: > 100 µM (inactive)
GI50 [5]: > 100 µM (inactive)
GI50 [6]: > 100 µM (inactive)
GI50 [7]: > 100 µM (inactive)
GI50 [8]: > 100 µM (inactive)
GI50 [9]: > 100 µM (inactive)
GI50 [10]: > 100 µM (inactive)
GI50 [11]: > 100 µM (inactive)
GI50 [12]: > 100 µM
GI50 [13]: > 100 µM (inactive)
GI50 [14]: > 100 µM (inactive)
GI50 [15]: > 100 µM (inactive)
GI50 [16]: > 100 µM (inactive)
GI50 [17]: > 100 µM (inactive)
GI50 [18]: > 100 µM (inactive)
GI50 [19]: > 100 µM (inactive)
GI50 [20]: > 100 µM (inactive)
GI50 [21]: > 100 µM (inactive)
GI50 [22]: > 100 µM (inactive)
GI50 [23]: > 100 µM (inactive)
GI50 [24]: > 100 µM (inactive)
GI50 [25]: > 100 µM (inactive)
GI50 [26]: > 100 µM (inactive)
GI50 [27]: > 100 µM (inactive)
GI50 [59]: > 100 µM (inactive)
GI50 [28]: > 100 µM (inactive)
GI50 [29]: > 100 µM (inactive)
GI50 [30]: > 100 µM (inactive)
GI50 [31]: > 100 µM (inactive)
GI50 [32]: > 100 µM (inactive)
GI50 [33]: > 100 µM (inactive)
GI50 [34]: > 100 µM (inactive)
GI50 [35]: > 100 µM (inactive)
GI50 [36]: > 100 µM (inactive)
GI50 [37]: > 100 µM (inactive)
GI50 [38]: > 100 µM (inactive)
GI50 [39]: > 100 µM (inactive)
GI50 [40]: > 100 µM (inactive)
GI50 [41]: > 100 µM (inactive)
GI50 [42]: > 100 µM (inactive)
GI50 [43]: > 100 µM (inactive)
GI50 [44]: > 100 µM (inactive)
GI50 [45]: > 100 µM (inactive)
GI50 [46]: > 100 µM (inactive)
GI50 [47]: > 100 µM (inactive)
GI50 [48]: > 100 µM (inactive)
GI50 [49]: > 100 µM (inactive)
GI50 [51]: > 100 µM (inactive)
GI50 [52]: > 100 µM (inactive)
GI50 [53]: > 100 µM (inactive)
GI50 [54]: > 100 µM (inactive)
GI50 [55]: > 100 µM (inactive)
GI50 [56]: > 100 µM (inactive)
GI50 [57]: > 100 µM (inactive)

Cc1nc(N)sc1C(=O)Nc1nc[nH]n1
GI50 [1]: > 100 µM (inactive)
GI50 [2]: > 100 µM (inactive)
GI50 [3]: > 100 µM (inactive)
GI50 [4]: > 100 µM (inactive)
GI50 [5]: > 100 µM (inactive)
GI50 [7]: > 100 µM (inactive)
GI50 [8]: > 100 µM (inactive)
GI50 [9]: > 100 µM (inactive)
GI50 [10]: > 100 µM (inactive)
GI50 [11]: > 100 µM (inactive)
GI50 [12]: > 100 µM
GI50 [13]: 13.3 µM (inactive)
GI50 [14]: > 100 µM (inactive)
GI50 [15]: > 100 µM (inactive)
GI50 [16]: > 100 µM (inactive)
GI50 [17]: > 100 µM (inactive)
GI50 [18]: > 100 µM (inactive)
GI50 [19]: > 100 µM (inactive)
GI50 [20]: > 100 µM (inactive)
GI50 [21]: > 100 µM (inactive)
GI50 [22]: > 100 µM (inactive)
GI50 [23]: > 100 µM (inactive)
GI50 [24]: > 100 µM (inactive)
GI50 [25]: > 100 µM (inactive)
GI50 [26]: > 100 µM (inactive)
GI50 [27]: 52.1 µM (inactive)
GI50 [28]: > 100 µM (inactive)
GI50 [29]: > 100 µM (inactive)
GI50 [30]: > 100 µM (inactive)
GI50 [31]: > 100 µM (inactive)
GI50 [32]: > 100 µM (inactive)
GI50 [33]: > 100 µM (inactive)
GI50 [34]: > 100 µM (inactive)
GI50 [35]: > 100 µM (inactive)
GI50 [36]: > 100 µM (inactive)
GI50 [37]: > 100 µM (inactive)
GI50 [38]: > 100 µM (inactive)
GI50 [39]: > 100 µM (inactive)
GI50 [40]: > 100 µM (inactive)
GI50 [41]: > 100 µM (inactive)
GI50 [42]: > 100 µM (inactive)
GI50 [43]: > 100 µM (inactive)
GI50 [44]: > 100 µM (inactive)
GI50 [45]: > 100 µM (inactive)
GI50 [46]: > 100 µM (inactive)
GI50 [47]: > 100 µM (inactive)
GI50 [48]: > 100 µM (inactive)
GI50 [50]: 14.1 µM (inactive)
GI50 [51]: > 100 µM (inactive)
GI50 [52]: > 100 µM (inactive)
GI50 [53]: > 100 µM (inactive)
GI50 [54]: > 100 µM (inactive)
GI50 [55]: > 100 µM (inactive)
GI50 [56]: > 100 µM (inactive)
GI50 [57]: > 100 µM (inactive)
